The text below walks through data of patent publication US20240000885A1 (VANDERBILT UNIVERSITY, published 2024).

Like-named read-outs stand apart in the source and are kept apart here.

In experiment [1] the target is interaction of MHV M-GFP with Cherry-MYO5B+D tail (902T) in A549 cells (UniProt P03415+Q9ULV0). Format: cell-based, human.
The target in experiment [2] is interaction of MHV M tail with MYO5B(ABCDE) (UniProt P03415+Q9ULV0). Format: cell-based, Mouse Hepatitis Virus (MHV).
The target of another experiment is T1, pAD-MYO5B(ABCDE) (human, UniProt Q9ULV0 1235-1439).
T1 construct: also called MYO5B ABCDE exons; construct containing just the ABCDE exons
T1 sequence: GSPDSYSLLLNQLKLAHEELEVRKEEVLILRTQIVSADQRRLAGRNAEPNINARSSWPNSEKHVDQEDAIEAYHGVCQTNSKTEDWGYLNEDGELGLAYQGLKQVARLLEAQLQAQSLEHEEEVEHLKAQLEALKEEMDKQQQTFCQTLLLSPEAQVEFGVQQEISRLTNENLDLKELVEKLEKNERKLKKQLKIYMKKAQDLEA
Put plainly: binary yeast 2-hybrid.

Chain of interaction of MHV M-GFP with Cherry-MYO5B+D tail (902T) in A549 cells (Q9ULV0 902-1848, one chain of several): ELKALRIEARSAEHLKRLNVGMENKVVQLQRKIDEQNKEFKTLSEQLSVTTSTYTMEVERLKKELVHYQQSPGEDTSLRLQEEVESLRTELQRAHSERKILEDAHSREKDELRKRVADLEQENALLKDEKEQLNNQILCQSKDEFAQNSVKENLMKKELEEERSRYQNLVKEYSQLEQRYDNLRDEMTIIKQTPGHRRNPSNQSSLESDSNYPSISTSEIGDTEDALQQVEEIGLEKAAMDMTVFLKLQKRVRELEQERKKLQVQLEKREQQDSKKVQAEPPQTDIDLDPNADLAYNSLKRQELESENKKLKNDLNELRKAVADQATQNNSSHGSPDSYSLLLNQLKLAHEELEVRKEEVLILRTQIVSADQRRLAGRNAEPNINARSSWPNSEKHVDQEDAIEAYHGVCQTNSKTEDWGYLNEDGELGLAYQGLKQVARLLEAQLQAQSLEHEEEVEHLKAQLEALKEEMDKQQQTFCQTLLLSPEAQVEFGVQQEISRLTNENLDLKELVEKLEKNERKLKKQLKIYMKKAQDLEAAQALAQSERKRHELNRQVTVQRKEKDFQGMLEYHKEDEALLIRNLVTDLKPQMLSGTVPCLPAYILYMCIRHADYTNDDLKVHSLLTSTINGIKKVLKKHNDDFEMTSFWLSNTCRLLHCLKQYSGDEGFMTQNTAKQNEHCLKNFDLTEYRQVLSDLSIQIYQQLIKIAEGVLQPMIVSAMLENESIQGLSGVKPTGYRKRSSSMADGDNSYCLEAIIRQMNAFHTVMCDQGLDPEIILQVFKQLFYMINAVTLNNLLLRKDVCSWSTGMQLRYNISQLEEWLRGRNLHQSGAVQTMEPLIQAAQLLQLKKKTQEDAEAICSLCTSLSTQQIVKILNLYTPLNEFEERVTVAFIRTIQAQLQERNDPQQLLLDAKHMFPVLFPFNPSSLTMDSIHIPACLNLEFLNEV

For `CN/C(=N/CCSCc1nc[nH]c1C)NC#N` [Cimetidine], in experiment [1], the “effect on the co-localization of MHV M with MYO5B+D” value was “no effect”.
Consider `O=C(O)Cc1ccccc1Nc1c(Cl)cccc1Cl` [Diclofenac], for which, in experiment [2] (10 μM, 24 hours), the “identified as hit in initial yeast 2-hybrid screen (loss of b-galactosidase activity)” value (“identified … (loss of b-galactosidase activity)” for short) is “hits”. The “inhibition of the interaction between MHV M and MYO5B+D” value (“inhibition” for short) in experiment [1] was “more equivocal effects”.
As to `NC(N)=Nc1nc(CSCCC(N)=NS(N)(=O)=O)cs1` [Famotidine], the “effect on the co-localization of MHV M with MYO5B+D” value in experiment [1] is given as “no effect”.
On to `CS(=O)(=O)Nc1ccc([N+](=O)[O-])cc1Oc1ccccc1` [Nimesulide], for which, in experiment [2], the “identified … (loss of b-galactosidase activity)” value is “hits”. Besides, the “inhibition” value in experiment [1] is reported as “more equivocal effects”.
Take `CNC(=C[N+](=O)[O-])NCCSCc1csc(CN(C)C)n1` [Nizatidine]: the “identified … (loss of b-galactosidase activity)” value in experiment [2] was “hits”. Besides, in experiment [1], the “effect on colocalization of MHV M-GFP with ch-MYO5B+D 902 Tail” value is reported as “disrupts the colocalization”; the “inhibition” value is listed as “showed inhibition”; the “lowest concentration causing loss of localization between MHV M and MYO5B+D” value came out at 10 pM; the “lowest concentration that disrupted co-localization of MHV M-GFP and Cherry-MYO5B+D tail” value is 100 µM. Moreover, the “lowest dose that disrupted co-localization of MHV M with MYO5B+D” value in experiment [1] is reported as 100 pM.
On to `CN1Cc2c(N)cccc2C(c2ccccc2)C1` (centres unmarked) [Nomifensine], for which, in experiment [2] (10 μM, 24 hours), the “identified … (loss of b-galactosidase activity)” value is reported as “hits”. Also, the “inhibition” value in experiment [1] is “did not alter the interaction”.
In the same order, the values of Amiodorone are “hits” and “showed inhibition”.

B1: MHV M tail with deletion of the terminal 2 amino acids (other)
chain: SIRLFIRTGSWWSFNPETNNLMCIDMKGTVYVRPIIEDYHTLTATIIRGHLYMQGVKLGTGFSLSDLPAYVTVAKVSHLCTYKRAFLDKVDGVSGFAVYVKSKVGNYRLPSNKPSGADTALL
For B1, the binding result in the experiment with pAD-MYO5B(ABCDE) is “binds”.
